Assay results as given in PubChem BioAssay (NCI).
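Values below derive from 48-hour exposures of cells grown in 96-well plates, with endpoints linearly interpolated between the two concentrations bracketing the appropriate inhibition level. The concentration for full growth arrest is given as TGI.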

Assays:
Experiment in all cases: NCI tumour cell line growth inhibition, 48 h
M19-MEL melanoma = system: M19-MEL melanoma
HCT-116 colon = system: HCT-116 colon
SF-539 CNS = system: SF-539 CNS
SF-295 CNS = system: SF-295 CNS
HOP-92 NSCLC = system: HOP-92 NSCLC
SK-OV-3 ovarian = system: SK-OV-3 ovarian
LOX IMVI melanoma = system: LOX IMVI melanoma
HT29 colon = system: HT29 colon
UO-31 renal = system: UO-31 renal
NCI-H23 lung = system: NCI-H23 lung
UACC-257 melanoma = system: UACC-257 melanoma
KM12 colon = system: KM12 colon
NCI-H522 lung = system: NCI-H522 lung
NCI-H460 lung = system: NCI-H460 lung
A498 renal = system: A498 renal
CCRF-CEM leukemia = system: CCRF-CEM leukemia
SN12C renal = system: SN12C renal
IGROV1 ovarian = system: IGROV1 ovarian
HCC-2998 colon = system: HCC-2998 colon
MALME-3M melanoma = system: MALME-3M melanoma
KM20L2 colon = system: KM20L2 colon
HL-60(TB) leukemia = system: HL-60(TB) leukemia
SNB-78 CNS = system: SNB-78 CNS
M14 melanoma = system: M14 melanoma
SK-MEL-28 melanoma = system: SK-MEL-28 melanoma
SNB-19 CNS = system: SNB-19 CNS
SNB-75 CNS = system: SNB-75 CNS
SK-MEL-2 melanoma = system: SK-MEL-2 melanoma
XF 498 CNS = system: XF 498 CNS
K-562 leukemia = system: K-562 leukemia
EKVX NSCLC = system: EKVX NSCLC
U251 CNS = system: U251 CNS
TK-10 renal = system: TK-10 renal
OVCAR-8 ovarian = system: OVCAR-8 ovarian
COLO 205 colon = system: COLO 205 colon
RXF 393 renal = system: RXF 393 renal
DLD-1 colon = system: DLD-1 colon
MOLT-4 leukemia = system: MOLT-4 leukemia
RPMI-8226 leukemia = system: RPMI-8226 leukemia
SW-620 colon = system: SW-620 colon
OVCAR-4 ovarian = system: OVCAR-4 ovarian
HOP-18 NSCLC = system: HOP-18 NSCLC
NCI-H226 lung = system: NCI-H226 lung
SK-MEL-5 melanoma = system: SK-MEL-5 melanoma
786-0 renal = system: 786-0 renal
DMS 114 small cell lung = system: DMS 114 small cell lung
DMS 273 small cell lung = system: DMS 273 small cell lung
A549 NSCLC = system: A549 NSCLC
LXFL 529 NSCLC = system: LXFL 529 NSCLC
SF-268 CNS = system: SF-268 CNS
SR leukemia = system: SR leukemia
HOP-62 NSCLC = system: HOP-62 NSCLC
ACHN renal = system: ACHN renal
OVCAR-5 ovarian = system: OVCAR-5 ovarian
OVCAR-3 ovarian = system: OVCAR-3 ovarian
HCT-15 colon = system: HCT-15 colon
UACC-62 melanoma = system: UACC-62 melanoma
CAKI-1 renal = system: CAKI-1 renal

c1ccc2c(c1)nc(NC1CCCC1)c1[nH]c(C3CCCC3)nc12
TGI (M19-MEL melanoma): 27.7 µM | TGI (HCT-116 colon): 17.6 µM | TGI (SF-539 CNS): 21.1 µM | TGI (SF-295 CNS): 32.8 µM | TGI (HOP-92 NSCLC): 37.2 µM | TGI (SK-OV-3 ovarian): > 62.5 µM | TGI (LOX IMVI melanoma): 30.6 µM | TGI (HT29 colon): 20.1 µM | TGI (UO-31 renal): 63 µM | TGI (NCI-H23 lung): 32.7 µM | TGI (UACC-257 melanoma): 11.1 µM | TGI (KM12 colon): 21.3 µM | TGI (NCI-H522 lung): 36.9 µM | TGI (NCI-H460 lung): 27.1 µM | TGI (A498 renal): 43.1 µM | TGI (CCRF-CEM leukemia): 64.3 µM | TGI (SN12C renal): > 83.9 µM | TGI (IGROV1 ovarian): 46 µM | TGI (HCC-2998 colon): 17.6 µM | TGI (MALME-3M melanoma): 30.7 µM | TGI (KM20L2 colon): 20.8 µM | TGI (HL-60(TB) leukemia): 6.82 µM | TGI (SNB-78 CNS): > 92.7 µM | TGI (M14 melanoma): 10 µM | TGI (SK-MEL-28 melanoma): 28.3 µM | TGI (SNB-19 CNS): > 100 µM | TGI (SNB-75 CNS): > 100 µM | TGI (SK-MEL-2 melanoma): 19.1 µM | TGI (XF 498 CNS): 34.4 µM | TGI (K-562 leukemia): 41.4 µM | TGI (EKVX NSCLC): > 100 µM | TGI (U251 CNS): 13.3 µM | TGI (TK-10 renal): > 93.3 µM | TGI (OVCAR-8 ovarian): 24.3 µM | TGI (COLO 205 colon): 36.5 µM | TGI (RXF 393 renal): 30.9 µM | TGI (DLD-1 colon): > 100 µM | TGI (MOLT-4 leukemia): > 41.7 µM | TGI (RPMI-8226 leukemia): > 67.9 µM | TGI (SW-620 colon): 21.2 µM | TGI (OVCAR-4 ovarian): 30.1 µM | TGI (HOP-18 NSCLC): 45.5 µM | TGI (NCI-H226 lung): 45.1 µM | TGI (SK-MEL-5 melanoma): 17.1 µM | TGI (786-0 renal): 20.7 µM | TGI (DMS 114 small cell lung): 35.4 µM | TGI (DMS 273 small cell lung): 22.3 µM | TGI (A549 NSCLC): 58.8 µM | TGI (LXFL 529 NSCLC): 22.8 µM | TGI (SF-268 CNS): 47 µM | TGI (SR leukemia): 63.5 µM | TGI (HOP-62 NSCLC): 35.9 µM | TGI (ACHN renal): > 75.6 µM | TGI (OVCAR-5 ovarian): 61.1 µM | TGI (OVCAR-3 ovarian): 27.9 µM | TGI (HCT-15 colon): 28.3 µM | TGI (UACC-62 melanoma): 29.8 µM

CC#CC1/C(=C\C(=O)OC)CCCC1O (configuration not stated)
TGI (M19-MEL melanoma): > 100 µM | TGI (HCT-116 colon): > 100 µM | TGI (SF-539 CNS): > 100 µM | TGI (SF-295 CNS): > 100 µM | TGI (SK-OV-3 ovarian): > 100 µM | TGI (HT29 colon): > 100 µM | TGI (UO-31 renal): > 100 µM | TGI (NCI-H23 lung): > 100 µM | TGI (UACC-257 melanoma): > 100 µM | TGI (KM12 colon): > 100 µM | TGI (NCI-H522 lung): > 100 µM | TGI (NCI-H460 lung): > 100 µM | TGI (A498 renal): > 100 µM | TGI (CCRF-CEM leukemia): > 100 µM | TGI (SN12C renal): > 100 µM | TGI (HCC-2998 colon): > 100 µM | TGI (MALME-3M melanoma): > 100 µM | TGI (HL-60(TB) leukemia): > 100 µM | TGI (SNB-78 CNS): > 100 µM | TGI (M14 melanoma): > 100 µM | TGI (SK-MEL-28 melanoma): > 100 µM | TGI (SNB-19 CNS): > 100 µM | TGI (SNB-75 CNS): > 100 µM | TGI (SK-MEL-2 melanoma): > 100 µM | TGI (XF 498 CNS): > 100 µM | TGI (K-562 leukemia): > 100 µM | TGI (EKVX NSCLC): > 100 µM | TGI (U251 CNS): > 100 µM | TGI (TK-10 renal): > 100 µM | TGI (OVCAR-8 ovarian): > 100 µM | TGI (RXF 393 renal): > 100 µM | TGI (DLD-1 colon): > 100 µM | TGI (MOLT-4 leukemia): > 100 µM | TGI (SW-620 colon): > 100 µM | TGI (OVCAR-4 ovarian): > 100 µM | TGI (NCI-H226 lung): > 100 µM | TGI (SK-MEL-5 melanoma): > 100 µM | TGI (786-0 renal): > 100 µM | TGI (DMS 114 small cell lung): > 100 µM | TGI (DMS 273 small cell lung): > 100 µM | TGI (A549 NSCLC): > 100 µM | TGI (CAKI-1 renal): > 100 µM | TGI (SF-268 CNS): > 100 µM | TGI (SR leukemia): > 100 µM | TGI (HOP-62 NSCLC): > 100 µM | TGI (ACHN renal): > 100 µM | TGI (OVCAR-5 ovarian): > 100 µM | TGI (OVCAR-3 ovarian): > 100 µM | TGI (HCT-15 colon): > 100 µM | TGI (UACC-62 melanoma): > 100 µM
